This note sets out measurements from paper PMC9119314 (Frontiers in Pharmacology, 2022).

One assay has as its system P. falciparum K1. Kind of assay: In vitro antiplasmodial activity, P. falciparum K1 (lactate dehydrogenase assay). The format is cell-based, Plasmodium falciparum. As to conditions: for IC50: Plasmodium falciparum, chloroquine-resistant strain K1, 48 h, mean ± SE, read-out: Activity against P. falciparum K1, IC50. The procedure:
P. falciparum (K1 clone) was maintained in human erythrocytes prepared from the donated blood samples (blood groups unknown, Ethical Tissue, University of Bradford), suspended in the RPMI 1640 medium as previously described ([Wright et al., 2001]), except that serum was replaced with Albumax II, [5% (^w/v)]. […] Twofold serial dilutions were made in 96-well microtiter plates in duplicate, and infected erythrocytes were added to give a final volume of 100 µL with 2.5% hematocrit and 1% parasitemia. Chloroquine diphosphate was used as a positive control, and uninfected and infected erythrocytes without compounds were included in each test. The plates were placed into a modular incubator; gassed with 93% nitrogen, 3% oxygen, and 4% carbon dioxide; and incubated at 37°C for 48 h. The parasite growth was assessed by measuring lactate dehydrogenase activity as described by [Makler et al. (1993)]. The reagent used contained the following in each mL: acetylpyridine adenine dinucleotide (APAD), 0.74 mg; lithium lactate, 19.2 mg; diaphorase, 0.1 mg; Triton X-100, 2 μL; nitroblue tetrazolium, 1 mg; and phenazine ethosulphate, 0.5 mg. Fifty microliter of this reagent was added to each well and mixed; plates were incubated for 15 min at 37°C. The optical densities were read at 550 nm using an Azure 96-well microplate reader (Azure Biosystems Inc.), and % inhibition of growth was calculated by comparison with the control values. IC50 values were determined using linear regression analysis (Microsoft Excel). A minimum of three separate determinations was carried out for each compound.

The subject of another assay is P. knowlesi A1-H.1. Kind of assay: In vitro antiplasmodial activity, P. knowlesi A1-H.1 (SYBR Green I). The format is cell-based, Plasmodium knowlesi. The note with it: 27 h. The procedure:
P. falciparum (3D7 clone) and P. knowlesi (A1-H.1 clone) were maintained in culture in RPMI 1640 supplemented with 25 mM HEPES, 25 mM NaHCO3, 10 mM D-glucose, 2 mM L-glutamine, 50 mg/L hypoxanthine, 25 mg/L gentamicin sulfate, 5 g/L Albumax II, and 10% (v/v) equine serum (Thermo Fisher Scientific, 26-050-088). The P. falciparum (3D7) and P. knowlesi (A1-H.1) parasites were grown in human A^+ red blood cells (National Health Blood and Transplant, United Kingdom). The parasites were incubated in sealed flasks at 37°C under a culture gas mixture of 96% N2, 3% CO2, and 1% O2. ([van Schalkwyk et al., 2019]). The compounds were initially dissolved in DMSO prior to diluting in RPMI. All experiments were initiated using unsynchronized parasites with both the parasitemia and hematocrit set to 1%. Drug susceptibility assays were set up in 96-well, flat-bottom microplates in a final volume of 200 μL, as described previously ([van Schalkwyk et al., 2017]). The controls were included for the background fluorescence (0% viability; parasites exposed to a supralethal 10 μM chloroquine concentration) and 100% growth (parasites in drug-free wells). The plates were incubated for one complete life cycle (27 h for P. knowlesi or 48 h for P. falciparum in vitro) at 37°C in a modular incubation chamber (Billups-Rothenburg Inc.) under the culture gas. Upon termination of the assay, the plates were stored at −20°C overnight. The SYBR Green I fluorescent method was used to measure parasite survival ([Bennett et al., 2004]; [Smilkstein et al., 2004]). After the microplates were thawed, 100 μL from each well was transferred into a duplicate plate. To this was added 100 μL of SYBR green solution [SYBR Green I (Thermo Fisher Scientific, S7563), diluted 1:5000 in a lysis buffer made of 20 mM Tris, 5 mM EDTA, 0.008% (w/v) saponin, 0.08% (v/v) Triton X-100, pH 7.5]. The plates were stored in the dark for 1 h before fluorescence was read at a 490 nm excitation wavelength and a 520 nm emission wavelength on a Spectramax M3 microplate reader (Molecular Devices) ([van Schalkwyk et al., 2017]). The background fluorescence (wells with parasites at 0% viability) was subtracted from all drug assay wells, and the parasite proliferation was determined as a percentage of the fluorescence in the drug-free control wells.

The next assay relates to Hep G2-A16-CD81 cells. Put plainly: Hep G2 cellular toxicity counter-screen (CellTiterGlo). Format: cell-based. As to conditions: HepG2-A16-CD81, no sporozoites, ± SE, read-out: Activity against Hep G cells. As for the experimental part:
Briefly, 3000 Hep G2-A16-CD81 cells/well were seeded in 1536-well plates (Greiner Bio). 50 nL of the test and control compound diluted in DMSO was added and incubated for 24 h. […] The plates were centrifuged for 5 min at 330 × g and incubated at 37°C. Forty-eight hours post infection, 2 μL of luciferin reagent (Promega BrightGlo) was added to each well, and the luciferase activity was detected using a Perkin Elmer Envision plate reader. […] To counter-screen for cellular toxicity, Hep G2-A16-CD81 cells were seeded as above for the sporozoite liver-stage assay but in the absence of sporozoites. Toxicity measurements were performed by adding Promega CellTiterGlo® (2 μL), followed by luminescence measurements. Curve fitting was done as described above using puromycin (25 μM) as a positive control and DMSO as negative control wells.
For orientation: Counterscreens check selectivity or assay interference.

The subject of another assay is A2780/WT cells. Put plainly: Chemosensitivity MTT assay, A2780 wild type. As to conditions: Homo sapiens, A2780, 96 h, ± SE, read-out: Activity against A2780/WT cells, IC50. Format: cell-based, human. The procedure:
The chemosensitivity of compounds 3–6 was assessed in the wild-type immortalized human ovarian adenocarcinoma cell line A2780 and its daughter cell lines, which are resistant to the standard cancer chemotherapeutics doxorubicin (A2780/ADR) and cisplatin (A2780/CIS, all cell lines from ECACC, Salisbury, United Kingdom). A modified MTT assay was used ([Shnyder et al., 2008]). Cells (2 × 10^4/ml) were inoculated into each well of a 96-well plate and incubated for 24 h at 37°C in a humidified atmosphere containing 5% CO2. Compounds were then added at a range of concentrations to each well, and the plates were then incubated for a further 96 h. After 96 h, the culture medium was removed and 200 μL of 0.5 mg ml^–1 MTT solution (Sigma) in the complete medium was added to each well. Following a further 4 h incubation, the solution was removed from each well and 150 μL of DMSO was added to solubilize the formazan crystals resulting from MTT conversion. The absorbance values for the resulting solutions were read at 540 nm on an Azure 96-well microplate reader (Azure Biosynstems Inc.), and the cell survival was calculated as the absorbance of treated cells divided by the control.
Background: Formazan colour is commonly taken as a measure of viable cells.

[1] abbreviates: Plasmodium knowlesi, read-out: Activity against P. knowlesi A1-H.1, IC50, 27 h, ± SD.

Molecules are shown by their SMILES. Like-named read-outs stand apart in the source and are kept apart here.

Take `C[n+]1c2ccccc2cc2[n-]c3c(Br)cc(Br)cc3c21` [Compound 4, 7,9-Dibromocryptolepine]: the IC50 in the assay with P. falciparum K1 worked out at 440 ± 90 nM; with P. knowlesi A1-H.1 (setting [1]), 1120 ± 450 nM; in the assay on Hep G2-A16-CD81 cells it was 6790 ± 920 nM; with A2780/WT cells, 200 ± 580 nM. Besides, the “Selectivity index (SI), P. falciparum K1 with respect to Hep G cells” value (shortened to “Selectivity index (SI), P. falciparum K1”) with P. falciparum K1 was determined as 15.4.

For `C[n+]1c2ccccc2cc2[n-]c3c(I)cc(I)cc3c21` [Compound 6, 7,9-diiodocryptolepine], the IC50 with P. falciparum K1 came out at 250 ± 40 nM; in the assay on P. knowlesi A1-H.1 (setting [1]), 1040 ± 220 nM; with Hep G2-A16-CD81 cells, 28200 ± 4100 nM; in the assay with A2780/WT cells, 130 ± 70 nM. For the same compound, the “Selectivity index (SI), P. falciparum K1” value in the assay with P. falciparum K1 is recorded as 113.

On to `C[n+]1c2ccccc2cc2[n-]c3ccc(I)cc3c21` [Compound 5, 7-iodocryptolepine], for which the IC50 in the assay with P. falciparum K1 was 160 ± 30 nM; in the assay on P. knowlesi A1-H.1 (setting [1]), 110 nM; with P. knowlesi A1-H.1 (read-out: Activity against P. knowlesi A1-H.1, IC50, ± SD), 104 ± 40 nM; in the assay on Hep G2-A16-CD81 cells, 6700 ± 500 nM; with A2780/WT cells, 60 ± 10 nM. The “Selectivity index (SI), P. falciparum K1” value in the assay with P. falciparum K1 was 41.9.
